The source of these data is paper PMC11922053 (Science Advances, 2025).

Where a SMILES comes first, the peptide text is derived from it. Bridges are numbered along the chain shown (N, C = ends). [ ]: non-standard residue; d: D form. The star is where a group is joined. Biotin = O=C1N[C@H]2[C@H](CS[C@H]2CCCCC(=O)*)N1; 2Nal = N[C@@H](Cc1ccc2ccccc2c1)C(=O)O; Gly(cPent) = N[C@H](C(=O)O)C1CCCC1; Hyp = O=C(O)[C@@H]1C[C@@H](O)CN1; Pen = CC(C)(S)[C@H](N)C(=O)O; Api = NC1(C(=O)O)CCNCC1; Ahx = NCCCCCC(=O)O

In this assay the test system is anti-hemagglutinin antibody clone 12ca5. In words: Biolayer interferometry. It is filed as binding, mouse. To be noted: off-target control. (In BLI a coated tip is dipped into the sample, and binding shifts an interference pattern.)

With `CC1(C)SSC[C@H](NC(=O)[C@H](CO)NC(=O)[C@@H](NC(=O)[C@H](CO)NC(=O)C2(NC(=O)[C@H](Cc3ccc4ccccc4c3)NC(=O)[C@H](CO)NC(=O)CCCCCNC(=O)[C@@H](N)CCCCNC(=O)CCCC[C@@H]3SC[C@@H]4NC(=O)N[C@@H]43)CCNCC2)C2CCCC2)C(=O)N2C[C@H](O)C[C@H]2C(=O)N[C@@H](CO)C(=O)N[C@@H](Cc2ccc(O)cc2)C(=O)N[C@@H](CO)C(=O)N[C@@H](CO)C(=O)N2C[C@H](O)C[C@H]2C(=O)N[C@@H]1C(=O)N[C@@H](CO)C(N)=O` [NCBP-4 Ser Sub] (H-K(Biotin)[Ahx]S[2Nal][Api]S[Gly(cPent)]SC[Hyp]SYSS[Hyp][Pen]S-NH2; disulfide 9-16; N-terminus assumed), the “nonspecific binding to 12ca5 by BLI (in words)” value is reported as “no affinity”.
